Reference: the NIST ThermoML archive (doi:10.1016/j.jct.2012.08.030)
± gives the expanded uncertainty stated by the source.

Key:
[1] = refractive index (Na D-line) (dimensionless); xn = mol fraction of the nth substance listed; details: 101.3 kPa, Liquid, Standard Abbe refractometry, x2 = 0
[2] = xn = mol fraction of the nth substance listed; details: 101.3 kPa, Liquid, x2 = 0; for speed of sound: Sing-around technique in a fixed-path interferometer; for mass density: Vibrating tube method
[3] = 101.3 kPa, Liquid; for speed of sound: Sing-around technique in a fixed-path interferometer; for mass density: Vibrating tube method
[4] = refractive index (Na D-line) (dimensionless); details: 101.33 kPa, Liquid, Standard Abbe refractometry

| Compound | refractive index ([1]; 298.15 K) | refractive index ([1]; 303.15 K) | refractive index ([1]; 308.15 K) | refractive index ([1]; 313.15 K) | speed of sound ([2]; 298.15 K) | mass density ([2]; 298.15 K) | speed of sound ([2]; 303.15 K) | mass density ([2]; 303.15 K) | speed of sound ([3]; 298.15 K) | mass density ([3]; 298.15 K) | speed of sound ([3]; 303.15 K) | mass density ([3]; 303.15 K) | speed of sound ([3]; 308.15 K) | mass density ([3]; 308.15 K) | speed of sound ([3]; 313.15 K) | mass density ([3]; 313.15 K) | refractive index ([4]; 298.15 K) | refractive index ([4]; 303.15 K) | refractive index ([4]; 308.15 K) | refractive index ([4]; 313.15 K) | other results |
| --- | --- | --- | --- | --- | --- | --- | --- | --- | --- | --- | --- | --- | --- | --- | --- | --- | --- | --- | --- | --- | --- |
| CO [methanol] + CCCCn1cc[n+](C)c1.COS(=O)(=O)[O-] | 1.3272 ± 0.00031 | 1.32552 ± 0.00031 | 1.32362 ± 0.00031 | 1.32171 ± 0.00031 | 1104.3 ± 0.59 m/s | 787.405 ± 0.12 kg/m3 | 1088.3 ± 0.59 m/s | 782.688 ± 0.12 kg/m3 | – | – | – | – | – | – | – | – | – | – | – | – | speed of sound ([2]; 308.15 K): 1072 ± 0.58 m/s; mass density ([2]; 308.15 K): 777.941 ± 0.12 kg/m3; speed of sound ([2]; 313.15 K): 1055.9 ± 0.58 m/s; mass density ([2]; 313.15 K): 773.168 ± 0.12 kg/m3 |
| CO [methanol] | – | – | – | – | – | – | – | – | 1104.3 ± 0.59 m/s | 787.405 ± 0.12 kg/m3 | 1088.3 ± 0.59 m/s | 782.688 ± 0.12 kg/m3 | 1072 ± 0.58 m/s | 777.941 ± 0.12 kg/m3 | 1055.9 ± 0.58 m/s | 773.168 ± 0.12 kg/m3 | 1.3272 ± 0.00031 | 1.32552 ± 0.00031 | 1.32362 ± 0.00031 | 1.32171 ± 0.00031 | – |
| CCCCO [butan-1-ol] | – | – | – | – | – | – | – | – | 1239.3 ± 1.2 m/s | 805.93 ± 0.24 kg/m3 | 1222.9 ± 1.2 m/s | 802.088 ± 0.24 kg/m3 | 1206.3 ± 1.2 m/s | 798.214 ± 0.24 kg/m3 | 1189.7 ± 1.2 m/s | 794.301 ± 0.24 kg/m3 | 1.39747 ± 0.00037 | 1.39549 ± 0.00037 | 1.39342 ± 0.00037 | 1.39138 ± 0.00037 | – |
| CCCO [propan-1-ol] + CCCCn1cc[n+](C)c1.COS(=O)(=O)[O-] | 1.38334 ± 0.00033 | 1.38131 ± 0.00033 | 1.37926 ± 0.00033 | 1.37722 ± 0.00033 | 1205.9 ± 0.8 m/s | 800.008 ± 0.14 kg/m3 | 1189.3 ± 0.8 m/s | 795.97 ± 0.14 kg/m3 | – | – | – | – | – | – | – | – | – | – | – | – | speed of sound ([2]; 308.15 K): 1172.4 ± 0.79 m/s; mass density ([2]; 308.15 K): 791.892 ± 0.14 kg/m3; speed of sound ([2]; 313.15 K): 1155.5 ± 0.79 m/s; mass density ([2]; 313.15 K): 787.772 ± 0.14 kg/m3 |
| CC(C)O [propan-2-ol] + CCCCn1cc[n+](C)c1.COS(=O)(=O)[O-] | 1.37527 ± 0.00033 | 1.37314 ± 0.00033 | 1.37093 ± 0.00033 | 1.3687 ± 0.00033 | 1138.7 ± 0.78 m/s | 781.123 ± 0.15 kg/m3 | 1121.4 ± 0.78 m/s | 776.845 ± 0.15 kg/m3 | – | – | – | – | – | – | – | – | – | – | – | – | speed of sound ([2]; 308.15 K): 1103.9 ± 0.77 m/s; mass density ([2]; 308.15 K): 772.487 ± 0.15 kg/m3; speed of sound ([2]; 313.15 K): 1086.6 ± 0.77 m/s; mass density ([2]; 313.15 K): 768.053 ± 0.15 kg/m3 |
| CC(C)O [propan-2-ol] | – | – | – | – | – | – | – | – | 1138.7 ± 0.78 m/s | 781.123 ± 0.15 kg/m3 | 1121.4 ± 0.78 m/s | 776.845 ± 0.15 kg/m3 | 1103.9 ± 0.77 m/s | 772.487 ± 0.15 kg/m3 | 1086.6 ± 0.77 m/s | 768.053 ± 0.15 kg/m3 | 1.37527 ± 0.00033 | 1.37314 ± 0.00033 | 1.37093 ± 0.00033 | 1.3687 ± 0.00033 | – |
| CCCCO [butan-1-ol] + CCCCn1cc[n+](C)c1.COS(=O)(=O)[O-] | 1.39747 ± 0.00037 | 1.39549 ± 0.00037 | 1.39342 ± 0.00037 | 1.39138 ± 0.00037 | 1239.3 ± 1.2 m/s | 805.93 ± 0.24 kg/m3 | 1222.9 ± 1.2 m/s | 802.088 ± 0.24 kg/m3 | – | – | – | – | – | – | – | – | – | – | – | – | speed of sound ([2]; 308.15 K): 1206.3 ± 1.2 m/s; mass density ([2]; 308.15 K): 798.214 ± 0.24 kg/m3; speed of sound ([2]; 313.15 K): 1189.7 ± 1.2 m/s; mass density ([2]; 313.15 K): 794.301 ± 0.24 kg/m3 |
| CCCCn1cc[n+](C)c1.COS(=O)(=O)[O-] [1-butyl-3-methylimidazolium methyl sulfate] | – | – | – | – | – | – | – | – | 1654.6 ± 3.1 m/s | 1212.06 ± 2.8 kg/m3 | 1642.2 ± 3.1 m/s | 1208.7 ± 2.8 kg/m3 | 1630 ± 3.1 m/s | 1205.35 ± 2.8 kg/m3 | 1617.9 ± 3.1 m/s | 1202.01 ± 2.8 kg/m3 | 1.47824 ± 0.00068 | 1.47704 ± 0.00068 | 1.47577 ± 0.00068 | 1.47443 ± 0.00068 | – |
| CCCO [propan-1-ol] | – | – | – | – | – | – | – | – | 1205.9 ± 0.8 m/s | 800.008 ± 0.14 kg/m3 | 1189.3 ± 0.8 m/s | 795.97 ± 0.14 kg/m3 | 1172.4 ± 0.79 m/s | 791.892 ± 0.14 kg/m3 | 1155.5 ± 0.79 m/s | 787.772 ± 0.14 kg/m3 | 1.38334 ± 0.00033 | 1.38131 ± 0.00033 | 1.37926 ± 0.00033 | 1.37722 ± 0.00033 | – |
